Test results taken from patent US20130217735A1, “FUNGICIDAL COMPOSITIONS AND METHODS OF USE” (Agri-Food and BioSciences Institute, priority 2010, published 2013).
Read-outs that look alike come from different tables or passages of the source.

Experiments:
[1] = test system: Phytophthora erythroseptica; assay: Example 7 sensitivity testing of potato tuber pathogens to thiabendazole derivatives; format: cell-based; conditions: for Inhibition (%) of mycelial growth / inhibition at 25 µM / inhibition at 250 µM: Trial B; for inhibition at 25 µM / inhibition at 250 µM: Phytophthora erythroseptica, read-out: Inhibition (%) of mycelial growth
Description: (§1) In vitro tests of the IL thiabendazolium docusate were performed in comparison to the neutral fungicide using selected isolates of Fusarium spp., the cause of potato dry rot. F. coeruleum and F. culmorum are sensitive to thiabendazole whereas isolates of F. sambucinum are frequently resistant. Isolates of Phoma spp., the cause of gangrene, and Phytophthora erythroseptica, the cause of pink rot, were also tested. All except F. sambucinum ex SASA were isolated in a laboratory. F. sambucinum ex SASA was supplied by SASA (Science and Advice for Scottish Agriculture, Roddinglaw Road, Edinburgh, EH12 9F, UK).
(§2) In each test three replicate plates for each organism per concentration were used and tests were repeated at least once.

F. sambucinum = assay: as above; format: cell-based; conditions: Trial B; for inhibition at 25 µM / inhibition at 250 µM: Fusarium sambucinum, read-out: Inhibition (%) of mycelial growth
Description: as §1, §2

Phoma exigua = assay: as above; format: cell-based; conditions: isolate Phoma exigua 9.1, Trial B
Description: as §1, §2

F. culmorum [2] = assay: as above; format: cell-based; conditions: isolate F. culmorum P13, Trial B
Description: as §1, §2

F. coeruleum [3] = assay: as above; format: cell-based; conditions: Trial B; for inhibition at 25 µM / inhibition at 250 µM: read-out: Inhibition (%) of mycelial growth
Description: as §1, §2

Phoma foveata = assay: as above; format: cell-based; conditions: isolate Phoma foveata BL2 05 T3, Trial B
Description: as §1, §2

P. exigua = assay: Example 5 agar plate mycelial growth test of TBZ derivatives; conditions: Trial A; for Inhibition (%) of mycelial growth: isolate P. exigua 9.1
Description: (§3) Both TBZ docusate and TBZ stearate were tested at final concentrations of 250 μm and 25 μm in agar. To prepare the TBZ docusate stock solution for 250 μm, 0.155 g of TBZ docusate prepared according to Trial A was added to a 10 mL volumetric flask and was dissolved in 10 mL of ethanol. The solution was mixed thoroughly. To prepare the TBZ docusate stock solution for 25 μm, 1 ml of the above stock solution was pipetted into a second 10 mL flask and 10 mL ethanol was added. The solution was mixed thoroughly. To prepare the TBZ stearate stock solution for 250 μm, 0.121 g of TBZ stearate was added to a 10 mL volumetric flask and was dissolved in 10 mL ethanol. The solution was mixed thoroughly. To prepare the TBZ stearate stock solution for 25 μm, 1 mL of the 250 μm TBZ stearate stock solution was pipetted into a second 10 mL flask and 10 mL ethanol was added. The solution was mixed thoroughly.
(§4) The agar was prepared and autoclaved. Potato dextrose agar (PDA) was used for the Fusarium species and Phytophthora erythroseptica and malt agar was used for the Phoma species. The agar was allowed to cool to 50° C. Each of the stock solutions was added to the agar at the rate of 10 mL stock solution per liter of agar to give the two final concentrations, for both TBZ stearate and docusate, in agar. Also prepared were a 1% ethanol control (10 mL per liter of agar) and an untreated agar as a second control. The plates were prepared in triplicate for each concentration.
(§5) For each pathogen isolate tested, 3 plates of 250 μm/1, 3 plates of 25 μm/1, 3 plates of 1% ethanol, and 3 plates of untreated agar were inoculated using an agar plug cut with a no. 3 cork borer from the margin of an actively-growing culture on agar. The plates were incubated at an appropriate temperature (usually 18-20° C.) in darkness. The growth rate was monitored and assessed after 5-7 days. The growth was assessed by measuring colony diameters minus plug (two measurements at right-angles) per plate. The percent reduction was calculated with respect to the control.
(§6) Pure thiabendazole (TBZ; 0.5 g) obtained from MSD Agvet (Rahway, N.J.) was dissolved in water (10 mL) by adding the minimum required volume (c. 0.5 mL) of hypophosphorous acid and heating gently with stirring, then made up to 100 mL with water to give a stock solution (25 mM). TBZ docusate (0.155 g) or TBZ stearate (0.121 g) was dissolved in ethanol (100 ml) to give stock solutions (25 mM). A ten-fold dilution of each of these stock solutions was prepared (in water for TBZ and in ethanol for TBZ docusate and stearate). […] In addition, agar with 1% v/v ethanol and unamended agar was prepared (ethanol and unamended controls). The agar was poured into Petri plates (9 cm) and allowed to set.
(§7) Isolates of the appropriate potato tuber pathogens were grown on PDA for Fusarium spp. and Phytophthora erythroseptica or on MA for Phoma spp. Each isolate to be tested was inoculated onto three replicate plates of the two concentrations of each compound and onto ethanol and unamended agar controls using plugs (6 mm diameter) cut from the margins of actively growing cultures. Plates were incubated in darkness at 20° C. and mycelial growth measured (two measurements at right-angles for each plate) after 5-7 days (depending on the growth rates).

P. erythroseptica = assay: as above; conditions: Trial A; for Inhibition (%) of mycelial growth: isolate P. erythroseptica BL2/08 P31
Description: as §3, §4, §5, §6, §7

F. sulphureum = assay: as above; conditions: 5-7 days, TBZ docusate Trial A; for Inhibition (%) of mycelial growth: isolate F. sulphureum ex SASA
Description: as §3, §4, §5, §6, §7

P. foveata = assay: as above; conditions: Trial A; for Inhibition (%) of mycelial growth: isolate P. foveata BL2 05 T3
Description: as §3, §4, §5, §6, §7

F. coeruleum [4] = assay: as above; conditions: Trial A; for Inhibition (%) of mycelial growth: isolate F. coeruleum ex B7/06 T8
F. culmorum [5] = assay: as above; format: cell-based; conditions: isolate F. culmorum P13, Trial A
[6] = isolate Phytophthora erythroseptica BL2/08 P31, 25 μM in agar
[7] = isolate Phytophthora erythroseptica BL2/08 P31, 250 μM in agar
[8] = isolate Phytophthora erythroseptica Rooster Eire, 25 μM in agar
[9] = isolate Phytophthora erythroseptica Rooster Eire, 250 μM in agar
[10] = isolate F. sambucinum L'gall 11, 25 μM in agar
[11] = isolate F. sambucinum L'gall 11, 250 μM in agar
[12] = isolate F. sambucinum L'gall 53, 25 μM in agar
[13] = isolate F. sambucinum L'gall 53, 250 μM in agar
[14] = isolate F. sambucinum ex SASA, 25 μM in agar
[15] = isolate F. sambucinum ex SASA, 250 μM in agar, vs 1% ethanol control
[16] = isolate F. coeruleum ex B7/06 T8, 25 μM in agar
[17] = isolate F. coeruleum ex B7/06 T8, 250 μM in agar
[18] = isolate F. coeruleum ex B16/08 P31, 25 μM in agar
[19] = isolate F. coeruleum ex B16/08 P31, 250 μM in agar

## CCCCCCCCCCCCCCCCCC(=O)O.c1ccc2[nH]c(-c3cscn3)nc2c1 [TBZ stearate, thiabendazolium stearate]
[1]; in words, Table 5
  activity against P. erythroseptica compared with thiabendazole alone: did not enhance the activity
[1]; [6]
  Inhibition (%) of mycelial growth: 10%
[1]; [7]
  Inhibition (%) of mycelial growth: 54%
[1]; [8]
  Inhibition (%) of mycelial growth: 11%
[1]; [9]
  Inhibition (%) of mycelial growth: 34%
F. sambucinum; [10]
  Inhibition (%) of mycelial growth: 10%
F. sambucinum; [11]
  Inhibition (%) of mycelial growth: 82%
F. sambucinum; [12]
  Inhibition (%) of mycelial growth: 20%
F. sambucinum; [13]
  Inhibition (%) of mycelial growth: 82%
F. sambucinum; [14]
  Inhibition (%) of mycelial growth: 24%
F. sambucinum; [15]
  Inhibition (%) of mycelial growth: 89%
Phoma exigua; 25 μM in agar
  Inhibition (%) of mycelial growth: 95%
Phoma exigua; 250 μM in agar
  Inhibition (%) of mycelial growth: 99%
F. culmorum [2]; 25 μM in agar
  Inhibition (%) of mycelial growth: 100%
F. culmorum [2]; 250 μM in agar
  Inhibition (%) of mycelial growth: 100%
F. coeruleum [3]; [16]
  Inhibition (%) of mycelial growth: 99%
F. coeruleum [3]; [17]
  Inhibition (%) of mycelial growth: 99%
F. coeruleum [3]; [18]
  Inhibition (%) of mycelial growth: 100%
F. coeruleum [3]; [19]
  Inhibition (%) of mycelial growth: 100%
Phoma foveata; 25 μM in agar
  Inhibition (%) of mycelial growth: 97%
Phoma foveata; 250 μM in agar
  Inhibition (%) of mycelial growth: 99%

## c1ccc2[nH]c(-c3cscn3)nc2c1 [TBZ stearate, thiabendazolium stearate]
P. exigua; 25 μM in agar
  Inhibition (%) of mycelial growth: 93%
P. exigua; 250 μM in agar
  Inhibition (%) of mycelial growth: 98%
P. erythroseptica; 25 μM in agar
  Inhibition (%) of mycelial growth: 2%
P. erythroseptica; 250 μM in agar
  Inhibition (%) of mycelial growth: 69%
F. sulphureum; 25 μM in agar
  Inhibition (%) of mycelial growth: 25%
F. sulphureum; 250 μM in agar
  Inhibition (%) of mycelial growth: 90%
P. foveata; 25 μM in agar
  Inhibition (%) of mycelial growth: 96%
P. foveata; 250 μM in agar
  Inhibition (%) of mycelial growth: 99%
F. coeruleum [4]; 25 μM in agar
  Inhibition (%) of mycelial growth: 98%
F. coeruleum [4]; 250 μM in agar
  Inhibition (%) of mycelial growth: 98%
F. culmorum [5]; 25 μM in agar
  Inhibition (%) of mycelial growth: 100%
F. culmorum [5]; 250 μM in agar
  Inhibition (%) of mycelial growth: 100%

## c1ccc2[nH]c(-c3cscn3)nc2c1 [TBZ, thiabendazole, reference compound]
P. exigua; Boeremia inoxydabilis, read-out: Inhibition (%) of mycelial growth, isolate P. exigua 9.1, 25 μM in agar
  inhibition at 25 µM: 92%
P. exigua; Boeremia inoxydabilis, read-out: Inhibition (%) of mycelial growth, isolate P. exigua 9.1, 250 μM in agar
  inhibition at 250 µM: 100%
[1]; [6]
  inhibition at 25 µM: 4%
[1]; [7]
  inhibition at 250 µM: 51%
[1]; [8]
  inhibition at 25 µM: 8%
[1]; [9]
  inhibition at 250 µM: 31%
F. sambucinum; [10]
  inhibition at 25 µM: 8%
F. sambucinum; [11]
  inhibition at 250 µM: 76%
F. sambucinum; [12]
  inhibition at 25 µM: 19%
F. sambucinum; [13]
  inhibition at 250 µM: 93%
F. sambucinum; [14]
  inhibition at 25 µM: 22%
F. sambucinum; [15]
  inhibition at 250 µM: 89%
Phoma exigua; 25 μM in agar, read-out: Inhibition (%) of mycelial growth
  inhibition at 25 µM: 95%
Phoma exigua; 250 μM in agar, read-out: Inhibition (%) of mycelial growth
  inhibition at 250 µM: 100%
F. culmorum [2]; Fusarium culmorum, 25 μM in agar, read-out: Inhibition (%) of mycelial growth
  inhibition at 25 µM: 100%
F. culmorum [2]; Fusarium culmorum, 250 μM in agar, read-out: Inhibition (%) of mycelial growth
  inhibition at 250 µM: 100%
F. coeruleum [3]; [16]
  inhibition at 25 µM: 99%
F. coeruleum [3]; [17]
  inhibition at 250 µM: 99%
F. coeruleum [3]; [18]
  inhibition at 25 µM: 100%
F. coeruleum [3]; [19]
  inhibition at 250 µM: 100%
Phoma foveata; Boeremia foveata, 25 μM in agar, read-out: Inhibition (%) of mycelial growth
  inhibition at 25 µM: 98%
Phoma foveata; Boeremia foveata, 250 μM in agar, read-out: Inhibition (%) of mycelial growth
  inhibition at 250 µM: 100%
P. erythroseptica; Phytophthora erythroseptica, read-out: Inhibition (%) of mycelial growth, isolate P. erythroseptica BL2/08 P31, 250 μM in agar
  inhibition at 250 µM: 76%
P. erythroseptica; 25 μM in agar
  Inhibition (%) of mycelial growth: 9%
F. sulphureum; read-out: Inhibition (%) of mycelial growth, isolate F. sulphureum ex SASA, 25 μM in agar
  inhibition at 25 µM: 17%
F. sulphureum; read-out: Inhibition (%) of mycelial growth, isolate F. sulphureum ex SASA, 250 μM in agar
  inhibition at 250 µM: 87%
P. foveata; Boeremia foveata, read-out: Inhibition (%) of mycelial growth, isolate P. foveata BL2 05 T3, 25 μM in agar
  inhibition at 25 µM: 98%
P. foveata; Boeremia foveata, read-out: Inhibition (%) of mycelial growth, isolate P. foveata BL2 05 T3, 250 μM in agar
  inhibition at 250 µM: 100%
F. coeruleum [4]; read-out: Inhibition (%) of mycelial growth, isolate F. coeruleum ex B7/06 T8, 25 μM in agar
  inhibition at 25 µM: 99%
F. coeruleum [4]; read-out: Inhibition (%) of mycelial growth, isolate F. coeruleum ex B7/06 T8, 250 μM in agar
  inhibition at 250 µM: 98%
F. culmorum [5]; Fusarium culmorum, 25 μM in agar
  inhibition at 25 µM: 100%
F. culmorum [5]; Fusarium culmorum, 250 μM in agar
  inhibition at 250 µM: 100%

## thiabendazolium docusate [TBZ docusate]
P. exigua; 25 μM in agar
  Inhibition (%) of mycelial growth: 90%
P. exigua; 250 μM in agar
  Inhibition (%) of mycelial growth: 98%
[1]; [6]
  Inhibition (%) of mycelial growth: 33%
[1]; [7]
  Inhibition (%) of mycelial growth: 97%
[1]; [8]
  Inhibition (%) of mycelial growth: 11%
[1]; [9]
  Inhibition (%) of mycelial growth: 91%
F. sambucinum; [10]
  Inhibition (%) of mycelial growth: 19%
F. sambucinum; [11]
  Inhibition (%) of mycelial growth: 83%
F. sambucinum; [12]
  Inhibition (%) of mycelial growth: 11%
F. sambucinum; [13]
  Inhibition (%) of mycelial growth: 68%
F. sambucinum; [14]
  Inhibition (%) of mycelial growth: 19%
F. sambucinum; [15]
  Inhibition (%) of mycelial growth: 96%
Phoma exigua; 25 μM in agar
  Inhibition (%) of mycelial growth: 94%
Phoma exigua; 250 μM in agar
  Inhibition (%) of mycelial growth: 99%
F. culmorum [2]; 25 μM in agar
  Inhibition (%) of mycelial growth: 100%
F. culmorum [2]; 250 μM in agar
  Inhibition (%) of mycelial growth: 100%
F. coeruleum [3]; [16]
  Inhibition (%) of mycelial growth: 99%
F. coeruleum [3]; [17]
  Inhibition (%) of mycelial growth: 99%
F. coeruleum [3]; [18]
  Inhibition (%) of mycelial growth: 100%
F. coeruleum [3]; [19]
  Inhibition (%) of mycelial growth: 100%
Phoma foveata; 25 μM in agar
  Inhibition (%) of mycelial growth: 95%
Phoma foveata; 250 μM in agar
  Inhibition (%) of mycelial growth: 99%
P. erythroseptica; 25 μM in agar
  Inhibition (%) of mycelial growth: 62%
P. erythroseptica; 250 μM in agar
  Inhibition (%) of mycelial growth: 100%
F. sulphureum; 25 μM in agar
  Inhibition (%) of mycelial growth: 27%
F. sulphureum; 250 μM in agar
  Inhibition (%) of mycelial growth: 97%
P. foveata; 25 μM in agar
  Inhibition (%) of mycelial growth: 95%
P. foveata; 250 μM in agar
  Inhibition (%) of mycelial growth: 99%
F. coeruleum [4]; 25 μM in agar
  Inhibition (%) of mycelial growth: 98%
F. coeruleum [4]; 250 μM in agar
  Inhibition (%) of mycelial growth: 98%
F. culmorum [5]; 25 μM in agar
  Inhibition (%) of mycelial growth: 100%
F. culmorum [5]; 250 μM in agar
  Inhibition (%) of mycelial growth: 100%
